Results reported in paper PMC6021111, “Murine leukemia virus p12 tethers the capsid-containing pre-integration complex to chromatin by binding directly to host nucleosomes in mitosis” (PLoS Pathogens, 2018).

Key:
[1] = tested on: nucleosome binding to immobilised p12 CTD peptides; experiment: BLI competition, nucleosome binding to immobilised p12 CTD peptides; details: soluble hCBS 100 μM
Procedure: To identify whether p12 binds to the same nucleosomal docking site as the CBS from PFV Gag, we then tested the ability of p12 CTD peptides to block the binding of nucleosomal arrays to hCBS and vice versa (Fig 9E and 9F).
The binding of PFV hCBS and p12 CTD peptides to recombinant H3.3 poly-nucleosomes (Active Motif) was measured using biolayer interferometry on an Octet RED system (Pall ForteBio Corp). The peptides were synthesised with a N-terminal biotin tag and GGGG linker. The Mo-MLV, FeLV and GaLV p12 CTD peptide sequences used are highlighted in bold in Fig 5C. A negative control was included that contained an R66A change in the Mo-MLV p12_M63I CTD peptide. Mo-MLV phos p12_M63I CTD was also synthesised with a phosphorylated S61 residue. The hCBS (positive control) sequence used corresponds to the CBS of PFV Gag ([…]). The biotinylated peptides were loaded onto streptavidin biosensors (Pall ForteBio Corp) at 0.5 μg/ml for 120 s in 10 mM HEPES pH 7.5, 150 mM NaCl, 0.005% (v/v) Tween 20. Following a buffer wash, the biosensors were incubated with serially-diluted nucleosome preparations (~0.5–250 nM) for 900–5400 s to measure association. Experiments were performed at 25°C and sample plates were agitated at 1000 rpm. Equilibrium binding amplitudes were determined by exponential least squares curve fitting of the association phase. The estimated binding amplitudes were then plotted against approximate nucleosome concentrations on GraphPad Prism 7. Equilibrium binding constant (Kd) and maximum specific binding (Bmax) were calculated by fitting the data to a non-linear regression model. Experiments were performed at least in duplicate and the data pooled for fitting. For competition assays, soluble non-biotin tagged peptides were added to the nucleosomal arrays at 100 μM to inhibit nucleosome binding prior to recording BLI measurements with biotinylated peptide immobilised on sensor probes. The non-biotin tagged peptide sequences were: hCBS—[…]; hCBS_L539A/R540A - […]; p12_WT—[…]; p12_R66A - […].

GST-p12_WT = experiment: SILAC-MS of proteins enriched with GST-p12_WT relative to GST; type: binding, Mo-MLV; details: for SDs from the mean: log2(GST-p12_WT, Heavy/GST, Light)
Description: To test whether GST-p12 was acting like the p12 region of Gag, we used a global proteomic approach based on stable isotope labelling by amino acids in cell culture (SILAC)-mass spectrometry (MS) to look for host proteins that interact with GST-p12 [35, 36]. A schematic diagram of the workflow is illustrated in Fig 4A. Briefly, GST, GST-p12_mut14 and GST-p12_WT were transiently-expressed in 293T cells cultured in light (R0/K0), medium (R6/K4) and heavy (R10/K8) SILAC media, respectively. Next, lysates of nocodazole treated transfected cells were prepared, normalised and used for parallel pull-down assays with glutathione-sepharose beads. The eluates from the beads were then pooled in a 1:1:1 ratio and subjected to LC-MS/MS analysis. The experiment was performed using biological replicates to test reproducibility of the mass-spec hits. The pull-down assays for this experiment were performed using mitotic cell lysates to facilitate identification of any potential chromatin interactions that were previously missed.
After removal of obvious contaminants (e.g. keratin) and non-quantified hits, 948 and 879 proteins were identified in replicates 1 and 2 (R1 and R2) of the experiment respectively (the false discovery rate (FDR) was set at 5%). To select proteins enriched in the heavy-labelled (H) GST-p12_WT sample relative to the light-labelled (L) GST sample, we compared the log2(H/L) silac ratios of the mass-spectrometry hits. When plotted as a frequency distribution, the log2(H/L) ratios of each replicate fitted well to a normal distribution curve (R^2 ≥ 0.98), allowing the mean and standard deviation to be accurately estimated (Fig 4B). In this experiment, contaminants/non-specifically bound cellular proteins were assumed to cluster around the mean of the distribution. […] Twenty one such proteins were identified in R1 and 22 identified in R2 (Fig 4B Venn diagram). […] These proteins were then ranked based on normalised abundance in the group. In mass-spectrometry analysis, larger proteins are in general assigned higher scores. Therefore, to control for protein size, we divided the number of peptide spectral matches identified for each protein with its length and then normalised the values across the group (Fig 4C and 4D). When ranked this way, the clathrin heavy chain (CLTC), clathrin interactor 1 (CLINT1) and NEDD4-like E3 ubiquitin ligase (WWP2) were identified as the top three hits. […] The function of clathrin in MLV infection is unclear. […] Thus, clathrin binding may be relevant to the early stages of MLV replication and should be investigated further.
For SILAC-MS experiments, 293T cells were grown is media containing light (R0K0, ^12C-Arginine and ^12C-Lysine), medium (R6K4, ^13C-Arginine and Lysine-4,4,5,5-d4) or heavy (R10K8, ^13C+^15N-Arginine and ^13C+^15N-Lysine) versions of L-Arginine and L-Lysine amino acids (Pierce) for a minimum of 6 doublings before transient expression of GST-p12 proteins. After performing the glutathione-sepharose pull-down assays equivalent volumes of the beads eluates were pooled and submitted to the Bristol University Proteomics Facility for RP nano-LC-MS/MS analysis. This analysis was performed on an LTQ-Orbitrap Velos mass spectrometer in line with a Dionex Ultimate 3000 nanoHPLC system as described in [53].
Supplementary file ppat.1007117.s005.xlsx: S1 Table Results from the first SILAC-MS analysis. GST, Mo-MLV GST-p12_mut14 or GST-p12_WT were transiently-expressed in 293T cells cultured in light (R0/K0), medium (R6/K4) and heavy (R10/K8) SILAC media, respectively. Mitotic cell lysates were subsequently used for glutathione-sepharose bead pull-down assays. Bead eluates were pooled in a 1:1:1 ratio and then analysed by LC-MS/MS. […] (XLSX) Click here for additional data file.

[2] = tested on: GST-p12_M63I phosphorylation in 293T cells; experiment: Kinase inhibition, GST-p12_M63I phosphorylation (PQ/SR); type: cell-based
Procedure: (§1) Glycogen synthase kinase 3 (GSK3) and cyclin-dependent kinase 5 (CDK5) were predicted to phosphorylate Mo-MLV p12 on S61, by the NetPhos 3.1 kinase prediction algorithm. […] These drugs were tested in our biochemical assays for their ability to reduce GST-p12_M63I phosphorylation and chromatin association. In our assays, cells transiently-expressing GST-p12_M63I were cultured in media containing nocodazole overnight, prior to the addition of the kinase inhibitors. […] After removal of the drugs, cells were immediately washed and lysed for glutathione-sepharose bead pull-down assays. The eluates from the beads were analysed by SDS-PAGE followed by sequential staining with PQ and SR dyes to quantify the phosphorylation levels of GST-p12_M63I. LiCl treatment had little effect on GST-p12_M63I phosphorylation (Fig 7A, lane 2). […] To correlate GST-p12_M63I phosphorylation with its ability to interact with chromatin, we quantified the amounts of H2B in the pull-down eluates by immunoblotting. […] The short period of kinase inhibition used in our assays, may have limited the effects observed on GST-p12_M63I phosphorylation.
(§2) GST-p12 proteins were expressed in 293T cells from pCAGGS/GST-derived plasmids by transient transfection using Turbofect (Thermo Fisher Scientific). Approximately 24 h after transfection, cells were changed into fresh media containing either 400 ng/ml nocodazole (Sigma) or 2 μg/ml aphidicolin (Sigma) and incubated overnight at 37°C. The synchronisation of the cell cultures after drug treatment was assessed by propidium iodide staining and cell cycle phase analysis by flow cytometry. Cells to be used in pull down assays were washed and lysed in 20 mM Tris pH 8.0, 300 mM NaCl, 1 mM EDTA, 10% Glycerol, 1% Triton X-100, protease inhibitors (Roche), phosphatase inhibitors (Merck). Lysis was facilitated by passing the lysates through a 19-gauge needle x7 and sonication, x7 pulses, 30 s ON and 30 s OFF, in an ice bath (Decon FS100). […] ProQ diamond and Sypro ruby staining (Thermo Fisher Scientific) of gels was visualised and quantified on a ChemiDoc imaging system (Bio-Rad). […]

[3] = tested on: H2B precipitation with GST-p12_M63I, 293T cells; experiment: Kinase inhibition, H2B pull-down with GST-p12_M63I; type: cell-based; details: 3.5 h with nocodazole and 10 μM MG132, immunoblot
Procedure: as §1, §2

[4] = tested on: Glycogen synthase kinase 3 (GSK3); details: cited from earlier work

For “NQGGYNLRPRTYQP [soluble hCBS, soluble non-biotin tagged hCBS peptide]”, which “competition with binding of immobilised FeLV to nucleosomal arrays” value [1] is on record?
Its value is “could compete with the binding”.

And the “competition with binding of immobilised GaLV to nucleosomal arrays” value [1]?
Its value is “could compete with the binding”.

And the “competition with binding of immobilised Mo-MLV p12_M63I to nucleosomal arrays” value [1]?
The value was “could compete with the binding”.

What about the “competition with binding of immobilised Mo-MLV p12_WT to nucleosomal arrays” value [1] of the same molecule?
The value was “could compete with the binding”.

Which “Normalised (PSMs/Length)” value (GST-p12_WT; Replicate 1) does the source give for “Inner centromere protein: cDNA FLJ31633, highly similar to this protein (fragment), B3KPD3” here?
Its value is 2.444.

What about the PSMs (GST-p12_WT; Replicate 1) of the same molecule?
Its PSMs is 2.

And the PSMs/Length (GST-p12_WT; Replicate 1)?
Its PSMs/Length is 0.00266.

What about the “SDs from the mean” value (GST-p12_WT; Replicate 1) of the same molecule?
Its value is 6.525.

What about the “Normalised (PSMs/Length)” value (GST-p12_WT; Replicate 2) of the same molecule?
Its value is 1.191.

What about the PSMs (GST-p12_WT; Replicate 2) of the same molecule?
The PSMs was 1.

What about the PSMs/Length (GST-p12_WT; Replicate 2) of the same molecule?
Its PSMs/Length is 0.00133.

What about the “SDs from the mean” value (GST-p12_WT; Replicate 2) of the same molecule?
Its value is 13.4521.

For “Phosphatidylinositol-4-phosphate 3-kinase C2domain-containing alpha polypeptide: cDNA FLJ53905, highly similar to this protein, B4DG55”, which “Normalised (PSMs/Length)” value (GST-p12_WT; Replicate 1) is on record?
Its value is 2.815.

What about the PSMs (GST-p12_WT; Replicate 1) of the same molecule?
Its PSMs is 4.

What about the PSMs/Length (GST-p12_WT; Replicate 1) of the same molecule?
Its PSMs/Length is 0.003063.

And the “Normalised (PSMs/Length)” value (GST-p12_WT; Replicate 2)?
The value was 6.17.

And the PSMs (GST-p12_WT; Replicate 2)?
Its PSMs is 9.

And the PSMs/Length (GST-p12_WT; Replicate 2)?
Its PSMs/Length is 0.006891.

What about the “SDs from the mean” value (GST-p12_WT; Replicate 2) of the same molecule?
Its value is 6.685.

For [Cl-].[Li+] [LiCl], which “effect on GST-p12_M63I phosphorylation” value ([2]; LiCl 40 mM, 3.5 h with nocodazole and 10 μM MG132) is on record?
Its value is “little effect”.

What about the “effect on chromatin pull down” value ([3]; LiCl 40 mM) of the same molecule?
The value was “no significant effect”.

What about the “inhibition of GSK3” value [4] of the same molecule?
The value was “shown to inhibit GSK3”.

Which results are given for “NEDD4-like E3 ubiquitin-protein ligase WWP2: O00308”?
Normalised (PSMs/Length) (GST-p12_WT; Replicate 1): 9.508; PSMs (GST-p12_WT; Replicate 1): 9; PSMs/Length (GST-p12_WT; Replicate 1): 0.01034; Normalised (PSMs/Length) (GST-p12_WT; Replicate 2): 9.262; PSMs (GST-p12_WT; Replicate 2): 9; PSMs/Length (GST-p12_WT; Replicate 2): 0.01034; SDs from the mean (GST-p12_WT; Replicate 2): 11.5377

Which “reduction of GST-p12_M63I phosphorylation by kinase inhibitor” value ([2]; 3.5 h with nocodazole and 10 μM MG132, LiCl 40 mM, roscovitine 75 μM, kenpaullone 40 μM) does the source give for CC[C@H](CO)Nc1nc(NCc2ccccc2)c2ncn(C(C)C)c2n1 [roscovitine] here?
Its value is ~ 1.5 fold.

What about the “reduction of H2B precipitation by kinase inhibitor” value ([3]; roscovitine 75 μM, kenpaullone 40 μM) of the same molecule?
The value was ~ 1.5 fold.

Which “Normalised (PSMs/Length)” value (GST-p12_WT; Replicate 1) does the source give for “Protein transport protein Sec16A: F1T0I1” here?
Its value is 1.969.

And the PSMs (GST-p12_WT; Replicate 1)?
Its PSMs is 5.

What about the PSMs/Length (GST-p12_WT; Replicate 1) of the same molecule?
Its PSMs/Length is 0.002142.

What about the “SDs from the mean” value (GST-p12_WT; Replicate 1) of the same molecule?
Its value is 3.112.

And the “Normalised (PSMs/Length)” value (GST-p12_WT; Replicate 2)?
The value was 1.918.

What about the PSMs (GST-p12_WT; Replicate 2) of the same molecule?
Its PSMs is 5.

And the PSMs/Length (GST-p12_WT; Replicate 2)?
The PSMs/Length was 0.002142.

What about the “SDs from the mean” value (GST-p12_WT; Replicate 2) of the same molecule?
Its value is 2.575.

With “Clathrin heavy chain 1: clathrin heavy chain, Q00610” as the molecule, how does the “Normalised (PSMs/Length)” value (GST-p12_WT; Replicate 1) read?
Its value is 49.383.

What about the PSMs (GST-p12_WT; Replicate 1) of the same molecule?
The PSMs was 90.

What about the PSMs/Length (GST-p12_WT; Replicate 1) of the same molecule?
The PSMs/Length was 0.05373.

What about the “SDs from the mean” value (GST-p12_WT; Replicate 1) of the same molecule?
Its value is 7.774.

And the “Normalised (PSMs/Length)” value (GST-p12_WT; Replicate 2)?
Its value is 51.3165.

And the PSMs (GST-p12_WT; Replicate 2)?
The PSMs was 96.

What about the PSMs/Length (GST-p12_WT; Replicate 2) of the same molecule?
Its PSMs/Length is 0.05731.

What about the “SDs from the mean” value (GST-p12_WT; Replicate 2) of the same molecule?
The value was 7.772.
